Laboratory results taken from article PMC5607274, “An iterative compound screening contest method for identifying target protein inhibitors using the tyrosine-protein kinase Yes” (Scientific Reports, 2017).

molecular target: T1, human recombinant Yes [a.a. 2–543 (end)] (Homo sapiens, UniProt P07947); assay: ADP-Glo kinase assay, inhibition rates of Yes phosphorylation activity (first and second screening); format: biochemical; settings: first screening; mean of n = 4 wells; 10 μmol L−1 compound
T1 construct: human recombinant Yes [a.a; 2–543 (end)]; purchased BPS Bioscience 40488
T1 sequence (P07947 2-543): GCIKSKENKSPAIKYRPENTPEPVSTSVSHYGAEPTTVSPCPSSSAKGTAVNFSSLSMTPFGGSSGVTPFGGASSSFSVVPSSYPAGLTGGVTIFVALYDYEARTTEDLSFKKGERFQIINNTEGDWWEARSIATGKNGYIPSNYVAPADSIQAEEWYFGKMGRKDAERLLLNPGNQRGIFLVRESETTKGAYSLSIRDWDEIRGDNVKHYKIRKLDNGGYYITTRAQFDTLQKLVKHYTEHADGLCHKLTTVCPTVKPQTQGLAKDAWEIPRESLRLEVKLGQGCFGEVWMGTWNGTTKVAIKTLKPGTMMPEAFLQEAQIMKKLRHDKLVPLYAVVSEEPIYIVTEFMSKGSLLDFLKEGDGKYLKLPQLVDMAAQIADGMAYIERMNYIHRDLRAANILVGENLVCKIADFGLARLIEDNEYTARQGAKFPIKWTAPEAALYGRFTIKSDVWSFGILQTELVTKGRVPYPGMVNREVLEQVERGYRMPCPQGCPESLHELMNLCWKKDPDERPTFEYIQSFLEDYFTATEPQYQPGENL
Method in brief: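 Hits from a first pass were rescreened after re-dissolution from fresh powder. The first pass reported the mean inhibition rate of quadruplicate wells per compound. Activity was that of recombinant human Yes [a.a. 2–543] kinase, read out with the ADP-Glo ADP-detection method.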

| First screening IR (inhibition rate) [%] | SMILES |
| --- | --- |
| 9 | COc1ccc(-c2cc(C(=O)O)c3cnn(C(C)C)c3n2)cc1OC [Compound Z56643618] |
| 2 | CC(C)n1ncc2c(C(=O)O)cc(-c3ccc4c(c3)OCCO4)nc21 [Compound Z56643642] |
| 8 | Cc1ccccc1-c1cc(C(=O)O)c2cnn(C(C)C)c2n1 [Compound Z56643722] |
| -2 | CC(C)c1noc2nc(-c3ccncc3)cc(C(=O)O)c12 [Compound Z56646434] |
| -43 | CCn1ncc2c(C(=O)O)cc(-c3ccccc3)nc21 [Compound Z56648330] |
| -15 | CS(=O)(=O)NS(=O)(=O)CCCCCl [Compound Z56755807] |
| -9 | CCCCS(=O)(=O)C1CCS(=O)(=O)C1 (stereo not shown) [Compound Z56757812] |
| -3 | Cc1ccc(S(=O)(=O)C2CS(=O)(=O)CC2O)cc1 (stereo not shown) [Compound Z56757815] |
| 15 | O=S1(=O)CC(S(=O)(=O)c2ccccc2)C(S(=O)(=O)c2ccccc2)C1 (stereo not shown) [Compound Z56757817] |
| 1 | O=C(O)/C=C/c1cccc(NS(=O)(=O)/C=C/c2ccccc2)c1 [Compound Z56757962] |
| 14 | CS(=O)(=O)C1(S(C)(=O)=O)CCCCC1 [Compound Z56758188] |
| -18 | O=S(=O)(c1ccc(Cl)cc1)C1(S(=O)(=O)c2ccc(Cl)cc2)CCCC1 [Compound Z56759577] |
| 14 | N#CC(C#N)=CC1=C2OC(c3ccccc3)=CC(c3ccccc3)=C2CCC1 [Compound Z56760799] |
| 4 | Cc1cc(-c2ccccc2)cc2c3ccccc3c3ccccc3[n+]12.[O-][Cl+3]([O-])([O-])[O-] [Compound Z56761787] |
| 3 | O=S1(=O)C=CC(Br)C1 (stereo not shown) [Compound Z56764753] |
| 9 | O=S1(=O)C=CCC1 [Compound Z56764769] |
| -6 | O=c1c2ccc3c(=O)n4c5cccc6cccc(nc4c4ccc(c2c34)c2nc3ccccc3n12)c65 [Compound Z56768422] |
| 16 | Nc1ncnc(Nc2ccccc2)n1 [Compound Z56768427] |
| 8 | CCN(CC)CCC1S(=O)(=O)CC(c2ccccc2)CS1(=O)=O (stereo not shown) [Compound Z56768715] |
| -9 | CCN(CC)c1ccc(/C=C2\CCC(/C=N/NC(=O)NC3CCCCC3)=C2N2CCOCC2)cc1 [Compound Z56769590] |

| First screening IR (inhibition rate) [%] | SMILES |
| --- | --- |
| -17 | Nc1c2c(nc3sc4c(c13)CCCC4)-c1ccccc1CC2 [Compound Z56772171] |
| -1 | O=P(/C=C(\Cl)c1ccccc1)(/C=C(/Cl)c1ccccc1)Nc1cccc(S(=O)(=O)NCc2ccco2)c1 [Compound Z56773378] |
| -7 | CCOC(=O)/C(C#N)=C\C1=C2OC(c3ccccc3)=CC(c3ccccc3)=C2CCC1 [Compound Z56780975] |
| 7 | COC(=O)/C(=C\C1=C2OC(c3ccccc3)=CC(c3ccccc3)=C2CCC1)C(C)=O [Compound Z56781644] |
| -2 | CCN(CC)c1ccc2c(c1)OC(=O)N(c1ccc(Cl)c(Cl)c1)P2(=Nc1ccc(C)cc1)N(CC)CC (stereo not shown) [Compound Z56783141] |
| 8 | Fc1ccc(/C=C2/CCCc3c2nc2ncnn2c3-c2ccc(F)cc2)cc1 [Compound Z56784264] |
| 0 | C(=C1\CCCc2c1nc1ncnn1c2-c1ccccc1)/c1ccccc1 [Compound Z56784273] |
| 3 | Brc1ccc(/C=C2/CCCc3c2nc2ncnn2c3-c2ccc(Br)cc2)cc1 [Compound Z56784274] |
| -10 | Clc1ccc(/C=C2/CCCc3c2nc2ncnn2c3-c2ccc(Cl)cc2)cc1 [Compound Z56784275] |
| 4 | CCOC(=O)c1c(NC(=O)c2ccc(C(C)(C)C)cc2)n(CCCN2CCOCC2)c2nc3ccccc3nc12 [Compound Z56786201] |
| 24 | Nc1ncnc(Nc2ccc(Br)cc2)n1 [Compound Z56786772] |
| -9 | CCN(CC)c1ccc(C(=O)NC(=S)Nc2nc(-c3cccs3)cs2)cc1 [Compound Z56787522] |
| -7 | Cc1ccc(-n2c(C)c(C=O)c3c2CCc2cn(-c4ccccc4)nc2-3)cc1 [Compound Z56788048] |
| -23 | Cc1cc(C(=O)/C(C#N)=C2\C(=O)Nc3c(Cl)cc(Cl)cc32)c(C)n1-c1cccc(C(F)(F)F)c1 [Compound Z56789382] |
| 3 | Cc1ccc2c(c1)/C(=N/n1cnc3ccccc31)C(=O)N2 [Compound Z56789395] |
| -2 | CCOC(=O)c1c(N)n(CC(C)NC(=O)C2CC2)c2nc3ccccc3nc12 (stereo not shown) [Compound Z56790662] |
| -8 | Cc1cc(/C=N/Nc2nc(-c3ccc(F)cc3)cs2)c(C)n1-c1cc(Cl)ccc1Cl [Compound Z56791351] |
| 15 | Cc1ccccc1Nc1ncnc(N)n1 [Compound Z56791580] |
| 6 | CC(C)(C)c1cc(-n2c(-c3cccnc3)nc3cc4c(cc32)OCCO4)cc(C(C)(C)C)c1O [Compound Z56793119] |

More lines, now with the values behind:

| SMILES | First screening IR (inhibition rate) [%] |
| --- | --- |
| CC(C)n1ncc2c(C(=O)N3CCN(c4ccc(F)cc4)CC3)cc(-c3ccccc3)nc21 [Compound Z52005969] | 27 |
| COc1cc(NC(=O)c2cc(-c3ccccc3)nc3c2cnn3C(C)C)cc(OC)c1 [Compound Z52023681] | -11 |
| Cc1nc(-c2cccc(NC(=O)CC(NC(N)=O)c3ccc(Cl)cc3)c2)cs1 (stereo not shown) [Compound Z52058293] | -6 |
| O=S(=O)(c1cccc(Cl)c1Cl)N1CCN(Cc2nc(-c3ccc(F)cc3)no2)CC1 [Compound Z52670207] | -5 |
| CN(CC(=O)N1N=C(c2ccco2)CC1c1cccs1)Cc1nc2ccccc2c(=O)[nH]1 (stereo not shown) [Compound Z52671252] | -3 |
| CN(CC(=O)NC(=O)Nc1ccccc1F)C1CCCc2ccccc21 (stereo not shown) [Compound Z52744280] | -6 |
| CCn1c(-c2ccccc2)c(C(=O)CSc2nnc(-c3cccnc3)n2N)c2ccccc21 [Compound Z54072868] | -13 |
| CC(OC(=O)c1ccc(-c2ccc(O)cc2)cc1)C(=O)c1ccc(F)c(F)c1 (stereo not shown) [Compound Z54379277] | 27 |
| CN1CCc2nc(NC(=O)CCC(=O)c3ccccc3)sc2C1 [Compound Z54410536] | -2 |
| COC(=O)c1ccc2c(=O)[nH]c(COC(=O)Cc3ccsc3)nc2c1 [Compound Z54469331] | 2 |
| CN1/C(=C\C(=O)CN2C(=O)NC3(CCCc4sccc43)C2=O)C(C)(C)c2ccccc21 (stereo not shown) [Compound Z54813762] | -20 |
| Cc1ccc(-c2nn3c(=O)c4c5c(sc4nc3c3ccccc23)CCCC5)cc1 [Compound Z55163996] | 4 |
| Cc1ccc(-c2nn3c(=O)c4c(C)c(C)sc4nc3c3ccccc23)cc1 [Compound Z55164044] | -6 |
| Cc1ccc(-c2nn3c(=O)c4c(-c5cccs5)csc4nc3c3ccccc23)cc1 [Compound Z55164116] | 24 |
| Cc1nn(CCc2nc(-c3ccco3)cs2)c2nc(-c3cccs3)cc(C(F)(F)F)c12 [Compound Z55404718] | 38 |
| Cc1nn(-c2ccccc2)c2nc(-c3ccccc3)cc(C(F)(F)F)c12 [Compound Z55426459] | -6 |

| SMILES | First screening IR (inhibition rate) [%] |
| --- | --- |
| Cc1nn(CCC#N)c2nc(-c3cccnc3)cc(C(F)(F)F)c12 [Compound Z55426831] | -2 |
| Cc1nn(CCC#N)c2nc(-c3ccccc3)cc(C(F)(F)F)c12 [Compound Z55426833] | -11 |
| CC1=Nc2nc(N3CCCCC3)c(C#N)c3c4c(nc(c23)N1)N(c1ccc(C)cc1)C(=O)C4 [Compound Z55516559] | -13 |
| Cc1ccc(N2C(=O)Cc3c2nc(N)c2c(N)nc(N4CCCC4)c(C#N)c32)cc1C [Compound Z55589600] | 15 |
| CC(C)c1ccc(N2C(=O)Cc3c2nc(N)c2c(N)nc(N4CCCC4)c(C#N)c32)cc1 [Compound Z55589601] | 6 |
| O=C(O)c1ccc2nc3c(nc2c1)-c1cccc2cccc-3c12 [Compound Z55723243] | 15 |
| Cc1ccc(-c2cc(C(=O)O)c3c(C)nn(-c4ccc(C)cc4C)c3n2)cc1 [Compound Z55871149] | 40 |
| Cc1nn(CCC#N)c2nc(-c3ccc(Br)cc3)cc(C(F)(F)F)c12 [Compound Z55874673] | -4 |
| Cc1nn(CCc2nn[nH]n2)c2nc(-c3ccccc3)cc(C(F)(F)F)c12 [Compound Z55874741] | 1 |
| Cc1ccc(S(=O)(=O)NC(=O)c2cc(C)n(CCCn3ccnc3)c2C)cc1 [Compound Z55892329] | -11 |
| Cc1cc(C)c(C)c(S(=O)(=O)Nc2ccccc2C(=O)N2CCN(c3cccc(C(F)(F)F)c3)CC2)c1C [Compound Z56576419] | 21 |
| CCc1cccc(OCC(=O)C(C#N)c2nc3ccccc3[nH]2)c1 (stereo not shown) [Compound Z56595958] | 2 |
| CCOC(=O)c1cc(-c2ccc(C#N)cc2)nc2c1c(C)nn2CCC#N [Compound Z56631499] | -7 |
| CCOC(=O)c1cc(-c2ccc3c(c2)OCCO3)nc2c1c(C)nn2CCC#N [Compound Z56631515] | 17 |
| CC(C)n1ncc2c(C(=O)O)cc(-c3ccccc3F)nc21 [Compound Z56643534] | -8 |
